Laboratory results from patent US10942183B2, “Methods of detecting progesterone receptor and of detecting an expression level” (REGENTS OF THE UNIVERSITY OF MINNESOTA, priority 2017, dated 2021).

Experiments:
[1] = system: PR target gene expression; experiment: Global gene expression analysis (Illumina HT-12v4) in T47D cells expressing WT or K388R PR-B; assay type: cell-based, human; conditions: for regulation of PR target genes in cells expressing KR PR: T47D KR PR
Description: For genome-wide microarray expression analysis, T47D cells expressing pIRES-neo3 empty vector, WT PR, or K388R PR were serum starved in modified improved minimum essential media (IMEM) (Gibco, ThermoFisher Scientific, Waltham, Mass.) for one day before treatment. Eight groups were treated with vehicle control, progesterone (10^−8 M), mifepristone (10^−7 M), aglepristone (10^−7 M), onapristone (10^−7 M), or combined treatment of progesterone+mifepristone, progesterone+aglepristone, or progesterone+onapristone for six hours before RNA extraction using a RNeasy kit (QIAgen). DNase I treated (QIAgen) RNA samples from triplicate experiments were prepared for expression analysis using the Illumina HT-12v4 bead chip platform according to standard protocols. Raw data from agonist-treated cells (progesterone or R5020) collected from two identically performed independent experiments (from this study and a previous study: GSE34148 (Knutson et al. Breast Cancer Res 2012, 14:R95)) was combined, normalized, and batch-corrected to ensure that gene expression values were informative across samples from separate experiments. Data were analyzed within multiple common R (R Core Team: R: A language and environment for statistical computing. R Foundation for Statistical Computing, Vienna, Austria 2015, [available on the world wide web at r-project.org/]) and Bioconductor (Gentleman et al. Genome Biol 2004, 5:R80) packages. Raw intensities were log 2 transformed and quantile normalized using lumi (Du et al. Bioinformatics 2008, 24:1547-1548), batch corrected using sva (Leek et al.: sva: Surrogate Variable Analysis. R package version 3.18.0.), and multiple probes for a single gene were collapsed using genefilter (Gentleman et al.: genefilter: genefilter: methods for filtering genes from high-throughput experiments. R package version 1.52.1). Differentially expressed genes (pairwise comparisons between all eight groups) were analyzed in limma (Smyth: Limma: linear models for microarray data. In: Bioinformatics and computational biology solutions using R and Bioconductor. edn.: Springer; 2005: 397-420), where empirical Bayes was used to better estimate the variance of the genes. Biological comparisons (for example, R5020/vehicle) were presented as log 2 fold change including the Benjamini and Hochberg (BH) adjusted P value (Benjamini et al. J Roy Stat Soc B Met 1995, 57:289-300) to account for multiple hypothesis testing. Expression data is available in the GEO database, accession: GSE94363.
Normalized gene expression data were filtered to isolate only high variance genes using the bioconductor package genefilter (Gentleman et al.: genefilter: genefilter: methods for filtering genes from high-throughput experiments. In., R package version 1.50.0 edn: R package version 1.50.0) using interquartile range cutoff value of 0.85. Non-negative matrix factorization (NMF) was performed within R using the NMF package version 0.20.5 (Gaujoux et al. BMC bioinformatics 2010, 11:367) where matrix factors were rank (2-10) and algorithm (brunet or snmf/r) optimized using the nmf function with parameters nrun=30 and seed=123456. […] Clustering and plots were performed in R (NMF package, a heat map function) using Euclidean distance and UPGMA (average) linkage.
PR ligand-mediated promoter selectivity remains understudied, especially in the context of antiprogestins and posttranslationally modified PR species. […]

[2] = system: PR Ser294 phosphorylation; experiment: PR Ser294 phosphorylation in T47D cells (Western blotting, immunofluorescence); assay type: cell-based, human; conditions: T47D cells expressing WT or KR PR; for PR Ser294 phosphorylation, ligand alone: 1 hour; for PR Ser294 phosphorylation in the presence of progesterone (co-treatment): progesterone plus antiprogestin
Description: T47D human breast cancer cell lines engineered to stably express PR variants (null, WT, K388R, or S294A) were previously described (Knutson et al. Breast Cancer Res 2012, 14:R9). T47D cells were maintained in complete minimal essential medium (cMEM) supplemented with 5% fetal bovine serum (FBS), 1% non-essential amino acids (NEAA), 1% penicillin/streptomycin, 6 ng/ml insulin (CellGro, Manassas, Va., USA, catalog #10-010-CV). T47D cells described above were engineered to also stably express RUNX2 shRNAs via the pLKO.1 knockdown expression vector system, which required 25 μg/ml puromycin for the vector. In various experiments, cells or explants were treated with E2, ICI 182 780, R5020, mifepristone, aglepristone, or onapristone (Arno Therapeutics, Inc., Flemington, N.J.).
Immunocytochemistry was performed on T47D cells expressing PR variants to measure total- and phospho-Ser294 PR levels. 500,000 cells were grown on coverslips in 6-well plates, starved in IMEM plus 5% charcoal stripped FBS, treated, and fixed with 4% paraformaldehyde for 20 min. The cells were permeabilized with 0.3% Triton-X100 before incubating with total-PR (clone Ab8, ThermoFisher Scientific, Waltham, Mass.) or custom phospho-Ser294-PR (clone 8508) antibodies. Cells were incubated with fluorescent secondary antibodies (Alexa Fluor 488) and DAPI mounting medium (Life Technologies, ThermoFisher Scientific, Waltham, Mass.) before visualizing on a Zeiss microscope with A4 and L5 filter cubes. Immunoblotting was performed as previously described (Daniel et al. Mol Endocrinol 2007, 21:2890-2906).
In addition, extensive luminal breast cancer heterogeneity may limit the ability to observe a subset of PR-driven breast cancers without patient selection. In this case, PR target gene expression may provide an accurate means of predicting which breast tumors are likely to be influenced by PR-driven biological pathways enacted by active phospho-Ser294 PRs. To probe changes in PR target gene expression in the presence or absence of commonly used PR ligands (R5020, RU486), including diverse antiprogestins (aglepristone, onapristone) currently in development for clinical use, the well characterized model system of T47D breast cancer cells, stably expressing either unmodified wild-type (WT) PR-B or a transcriptionally hyperactive form of deSUMOylated K388R PR-B (KR; this receptor faithfully mimics phosphorylated PR-B with regard to target gene selection) were used (Knutson et al. Pharmacology & therapeutics 2014, 142:114-125; Daniel et al. Mol Endocrinol 2007, 21:2890-2906). Whether the antiprogestins mifepristone (also called RU486), aglepristone, or onapristone alter PR Ser294 phosphorylation were tested in these T47D breast cancer models. Cells were treated for 1 hour with vehicle, progesterone, mifepristone, aglepristone, or onapristone and whole cell lysates were processed for Western blotting or immunofluorescence (IF) analysis (FIG. 4A, B). […] Greater loss of total KR PR protein was also apparent in the presence of progesterone and selected antiprogestins relative to liganded WT PR, consistent with increased turnover of deSUMOylated active receptors relative to intact WT PRs.

CC#C[C@]1(O)CC[C@H]2[C@@H]3CCC4=CC(=O)CCC4=C3[C@@H](c3ccc(N(C)C)cc3)C[C@@]21C [mifepristone]
regulation of PR target genes in cells expressing KR PR ([1]; antiprogestin 10^-7 M, 6 hours): substantially regulate multiple genes in cells expressing KR PR | PR Ser294 phosphorylation, ligand alone [2]: stimulated robust PR Ser294 phosphorylation | PR Ser294 phosphorylation in the presence of progesterone (co-treatment) [2]: also induced Ser294 phosphorylation

CN(C)c1ccc([C@H]2C[C@]3(C)[C@@H](CC[C@]3(O)CCCO)[C@@H]3CCC4=CC(=O)CCC4=C32)cc1 [onapristone]
regulation of PR target genes in cells expressing KR PR ([1]; antiprogestin 10^-7 M, 6 hours): does not substantially regulate PR target genes in either cell line | regulation of PR target genes in cells expressing WT PR ([1]; T47D WT PR, antiprogestin 10^-7 M, 6 hours): does not substantially regulate PR target genes in either cell line | PR transcriptional activity (hierarchical clustering of regulated genes) ([1]; T47D WT or KR PR, compared with PR-null cells): effectively inhibited PR (either WT or KR) transcriptional activity comparable to the level found in PR-null (control) cells | PR Ser294 phosphorylation, ligand alone [2]: had no effect on PR Ser294 phosphorylation | PR Ser294 phosphorylation in the presence of progesterone (co-treatment) [2]: blocked Ser294 phosphorylation in the presence of progesterone

CC(=O)[C@H]1CC[C@H]2[C@@H]3CCC4=CC(=O)CC[C@]4(C)[C@H]3CC[C@]12C [progesterone]
PR Ser294 phosphorylation, ligand alone [2]: stimulated PR Ser294 phosphorylation
